From US8138189B2, “Substituted benzene compounds as modulators of the glucocorticoid receptor” (Hoffman-La Roche Inc., priority 2009, dated 2012) come the findings set out here.

For the test, the target named is T1, full length human recombinant glucocorticoid receptor (Homo sapiens, UniProt P04150).
T1 construct: partially purified full length human recombinant glucocorticoid receptor; purchased Panvera/Invitrogen PV4302
T1 sequence (P04150 1-777): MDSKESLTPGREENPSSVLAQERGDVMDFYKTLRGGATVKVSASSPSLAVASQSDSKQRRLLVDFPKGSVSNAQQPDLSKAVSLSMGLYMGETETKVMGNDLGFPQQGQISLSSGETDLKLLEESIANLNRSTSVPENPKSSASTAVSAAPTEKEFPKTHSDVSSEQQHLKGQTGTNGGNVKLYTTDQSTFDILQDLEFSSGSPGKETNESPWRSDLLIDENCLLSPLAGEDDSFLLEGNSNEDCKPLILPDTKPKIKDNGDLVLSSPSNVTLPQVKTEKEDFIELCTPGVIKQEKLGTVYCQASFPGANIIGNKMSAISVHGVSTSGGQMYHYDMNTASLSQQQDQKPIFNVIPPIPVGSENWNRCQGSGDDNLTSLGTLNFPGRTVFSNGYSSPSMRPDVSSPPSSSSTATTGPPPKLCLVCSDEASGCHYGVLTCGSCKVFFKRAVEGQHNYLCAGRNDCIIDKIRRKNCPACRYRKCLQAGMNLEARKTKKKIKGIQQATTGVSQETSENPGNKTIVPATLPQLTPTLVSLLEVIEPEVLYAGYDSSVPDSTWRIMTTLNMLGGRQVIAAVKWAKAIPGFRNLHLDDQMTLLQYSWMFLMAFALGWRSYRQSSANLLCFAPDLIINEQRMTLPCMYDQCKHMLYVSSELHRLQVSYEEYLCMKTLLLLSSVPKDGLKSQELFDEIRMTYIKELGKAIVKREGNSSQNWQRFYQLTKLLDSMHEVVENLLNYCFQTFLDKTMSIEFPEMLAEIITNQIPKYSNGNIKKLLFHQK
As to the kind of experiment: Glucocorticoid Receptor Binding Assay (fluorescence polarization competitor assay, Fluormone GS Far Red tracer). In a few lines: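 Partially purified full-length recombinant human GR with a stabilizing coactivator peptide was incubated with Fluormone GS Far Red tracer and serially diluted compound for 3 h at 22 °C in the dark, pH 7.4. Fluorescence polarization was read at 610-660 nm. IC50 came from sigmoidal fitting, and Ki from Cheng-Prusoff.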

The term Ki denotes the equilibrium dissociation constant of an inhibitor or competing ligand from its target. As for `Cc1cc(C(O)(C(C)c2ccc(-c3ccc(C(=O)O)nc3)cc2Cl)C(F)(F)F)ccn1` (stereo not drawn) [Example 65, 5-{3-Chloro-4-[3,3,3-trifluoro-2-hydroxy-1-methyl-2-(2-methyl-pyridin-4-yl)-propyl]-phenyl}-pyridine-2-carboxylic acid], the Ki was 214 nM. On to `Cc1cc(C(O)(C(C)c2ccc(/C=C/c3ccc(C(=O)O)cc3)cc2Cl)C(F)(F)F)ccn1` (stereo not drawn) [Example 66, 4-((E)-2-{3-Chloro-4-[3,3,3-trifluoro-2-hydroxy-1-methyl-2-(2-methyl-pyridin-4-yl)-propyl]-phenyl}-vinyl)-benzoic acid], for which the Ki is 4.4 nM. In the case of `Cc1cc(C(O)(C(C)c2ccc(CCc3ccc(C(=O)O)cc3)cc2Cl)C(F)(F)F)ccn1` (stereo not drawn) [Example 67, 4-(2-{3-Chloro-4-[3,3,3-trifluoro-2-hydroxy-1-methyl-2-(2-methyl-pyridin-4-yl)-propyl]-phenyl}-ethyl)-benzoic acid], the Ki was 24.4 nM. With `CC(c1ccc(NC(=O)c2ccc(C(=O)O)cc2)cc1Cl)C(O)(c1ccnc(Cl)c1)C(F)(F)F` (stereo not drawn) [Example 69, N-{3-Chloro-4-[2-(2-chloro-pyridin-4-yl)-3,3,3-trifluoro-2-hydroxy-1-methyl-propyl]-phenyl}-terephthalamic acid], the Ki was 116 nM. As for `CC(c1ccc(NC(=O)c2cccc(C(=O)O)c2)cc1Cl)C(O)(c1ccnc(Cl)c1)C(F)(F)F` (stereo not drawn) [Example 70, N-{3-Chloro-4-[2-(2-chloro-pyridin-4-yl)-3,3,3-trifluoro-2-hydroxy-1-methyl-propyl]-phenyl}-isophthalamic acid], the figure is 315 nM; as for `CC(c1ccc(NC(=O)c2cccc(CC(=O)O)c2)cc1Cl)C(O)(c1ccnc(Cl)c1)C(F)(F)F` (stereo not drawn) [Example 73, (3-{3-Chloro-4-[2-(2-chloro-pyridin-4-yl)-3,3,3-trifluoro-2-hydroxy-1-methyl-propyl]-phenylcarbamoyl}-phenyl)-acetic acid], 93.5 nM; as for `CC(c1ccc(NS(=O)(=O)c2ccc(C(=O)O)cc2)cc1Cl)C(O)(c1ccnc(Cl)c1)C(F)(F)F` (stereo not drawn) [Example 76, 4-{3-Chloro-4-[2-(2-chloro-pyridin-4-yl)-3,3,3-trifluoro-2-hydroxy-1-methyl-propyl]-phenylsulfamoyl}-benzoic acid], 178 nM. As for `CC(c1ccc(Nc2ccc(C(=O)O)cc2)cc1Cl)C(O)(c1ccnc(Cl)c1)C(F)(F)F` (stereo not drawn) [Example 77, 4-{3-Chloro-4-[2-(2-chloro-pyridin-4-yl)-3,3,3-trifluoro-2-hydroxy-1-methyl-propyl]-phenylamino}-benzoic acid], the figure is 13.9 nM. For the compound `CC(c1ccc(N(c2ccc(C(=O)O)cn2)c2ccc(C(=O)O)cn2)cc1Cl)C(O)(c1ccnc(Cl)c1)C(F)(F)F` (stereo not drawn) [Example 78, 6,6′-(3-Chloro-4-(3-(2-chloropyridin-4-yl)-4,4,4-trifluoro-3-hydroxybutan-2-yl)phenylazanediyl)dinicotinic acid], the Ki turned out to be 76.7 nM.

Consider `CC(c1ccc(Oc2ccc(CC(=O)O)cc2)cc1Cl)C(O)(c1ccnc(Cl)c1)C(F)(F)F` (stereo not drawn) [Example 79, (4-{3-Chloro-4-[2-(2-chloro-pyridin-4-yl)-3,3,3-trifluoro-2-hydroxy-1-methyl-propyl]-phenoxy}-phenyl)-acetic acid], for which the inhibition constant (Ki) was determined as 13.4 nM. As for `CC(c1ccc(Oc2ccc(C(=O)O)cc2)cc1Cl)C(O)(c1ccnc(Cl)c1)C(F)(F)F` (stereo not drawn) [Example 80, 4-{3-Chloro-4-[2-(2-chloro-pyridin-4-yl)-3,3,3-trifluoro-2-hydroxy-1-methyl-propyl]-phenoxy}-benzoic acid], the figure is 2.1 nM.

As for `CC(c1ccc(Oc2ccc(C(=O)O)nc2)cc1Cl)C(O)(c1ccnc(Cl)c1)C(F)(F)F` (stereo not drawn) [Example 81, 5-{3-Chloro-4-[2-(2-chloro-pyridin-4-yl)-3,3,3-trifluoro-2-hydroxy-1-methyl-propyl]-phenoxy}-pyridine-2-carboxylic acid], the Ki was determined as 26.5 nM.
